Source: patent US10017542B2, “Antimicrobial peptides and methods of use thereof” (priority 2015, dated 2018)
pEC50, pIC50: −log10 of the molar value. Where a SMILES comes first, the peptide text is derived from it. [ ]: non-standard residue; d: D form. Orn = NCCC[C@H](N)C(=O)O

Key:
[1] = system: all bacteria tested in Table 9; test: In vitro bactericidal activity screening, average across all bacteria; format: cell-based; details: average value across all bacteria
[2] = system: Burkholderia cepacia strain Toronto (B.c.); test: In vitro bactericidal activity screening, endpoint titration; details: last concentration giving greater than two-logs reduction in CFU vs. saline control, 10^6 CFU/ml, 37° C.
[3] = system: Actinobacillus actinomycetemcomitans strain A7154 (A.a.); test: as above; details: last concentration giving greater than two-logs reduction in CFU vs. saline control
[4] = system: Fusobacterium nucleatum strain 1594 (F.n.); test: as above; details: last concentration giving greater than two-logs reduction in CFU vs. saline control
[5] = system: Escherichia coli strain (E.c.); test: as above; details: last concentration giving greater than two-logs reduction in CFU vs. saline control
[6] = system: Pseudomonas aeruginosa strain (P.a.); test: as above; details: last concentration giving greater than two-logs reduction in CFU vs. saline control
Pseudomonas Xen5 = test: Antibacterial activity, microtiter dilution method; format: cell-based; details: 24 hours, 37 degrees
A. baumanii = details: 24 h
Method: (§1) Briefly, cells were grown overnight in media specified for each strain, and were diluted in the same media. Serial dilutions of the peptides were added to microtiter plates in a volume of 50 ul, followed by the addition of 50 ul of bacteria or fungi, 5×10^5 CFU/ml. Plates were incubated at 37 degrees for 24 hours and the Minimum Inhibitory Concentrations (MICs) were determined as the lowest peptide concentration that inhibited 50% of bacterial growth.

E. coli = details: 24 h
Method: (§2) Measurement of antimicrobial and anti-fungal activity was determined by a standard micrometer dilution method. Briefly, cells were grown overnight in media specified for each strain, and were diluted in the same media. Serial dilutions of the peptides were added to microtiter plates in a volume of 50 ul, followed by the addition of 50 ul of bacteria or fungi, 5×10^5 CFU/ml. Plates were incubated at 37 degrees for 24 hours and the Minimum Inhibitory Concentrations (MICs) were determined as the lowest peptide concentration that inhibited 50% of bacterial growth.

E. cloaca = details: 24 h
Method: as §2

[7] = system: bacterial isolates of Table 7 (A. baumanii, E. coli, E. cloaca, Pseudomonas, Staphylococcus)
Method: as §1

B. thailandensis = test: microbe, parasite or virus in culture; details: Burkholderia thailandensis, 3 h

Molecule	Two-log Reduction Concentration Ave. [1]	Two-log Reduction Concentration [2]	Two-log Reduction Concentration [3]	Two-log Reduction Concentration [4]	Two-log Reduction Concentration [5]	Two-log Reduction Concentration [6]	pIC50 (Pseudomonas Xen5)	pIC50 (A. baumanii)	pIC50 (E. coli)	pIC50 (E. cloaca)	pIC50 [7]	pEC50 (B. thailandensis)
FARKFLKKFKRFAKKFVRFAFAF [SEQ ID NO: 6]	1.67 μM	1.25 μM	0.40 μM	3.75 μM	0.63 μM	–	–	–	–	–	–	–
FAFAFKAFKKAFKKFKKAFKKAFGPGRFAKKFAKKFKKFAKKFAKFAFAF [RP-433]	0.46 μM	0.12 μM	0.10 μM	1.25 μM	0.63 μM	0.90 μM	–	–	–	–	–	–
CC[C@H](C)[C@H](NC(=O)[C@H](CCCNC(=N)N)NC(=O)[C@H](C)NC(=O)[C@H](CC(C)C)NC(=O)[C@@H](N)CCCNC(=N)N)C(=O)N[C@H](C(=O)NCC(=O)NCC(=O)N[C@@H](Cc1ccccc1)C(=O)N[C@@H](C)C(=O)N[C@@H](CCCN)C(=O)N[C@@H](CCCN)C(=O)N[C@@H](Cc1ccccc1)C(=O)N[C@@H](C)C(=O)N[C@@H](CCCN)C(=O)N[C@@H](CCCN)C(=O)N[C@@H](Cc1ccccc1)C(=O)N[C@@H](CCCN)C(=O)N[C@@H](CCCN)C(=O)N[C@@H](Cc1ccccc1)C(=O)N[C@@H](C)C(=O)N[C@@H](CCCN)C(=O)N[C@@H](CCCN)C(=O)N[C@@H](Cc1ccccc1)C(=O)N[C@@H](C)C(=O)N[C@@H](CCCN)C(=O)N[C@@H](Cc1ccccc1)C(=O)N[C@@H](C)C(=O)N[C@@H](Cc1ccccc1)C(=O)N[C@@H](C)C(=O)N[C@@H](Cc1ccccc1)C(=O)O)C(C)C [RP500, RLARIVGGFAOOFAOOFOOFAOOFAOFAFAF] (H-RLARIVGGFA[Orn][Orn]FA[Orn][Orn]F[Orn][Orn]FA[Orn][Orn]FA[Orn]FAFAF-OH; N-terminus and C-terminus assumed)	–	–	–	–	–	–	6.30	5.12	5.42	5.12	5.28	–
CC(C)(O/N=C(\C(=O)N[C@@H]1C(=O)N2C(C(=O)[O-])=C(C[n+]3ccccc3)CS[C@H]12)c1csc(N)n1)C(=O)O [Ceftazidime]	–	–	–	–	–	–	–	–	–	–	–	4.41
